Assay results taken from ChEMBL document CHEMBL1201862, “PubChem BioAssay data set” (2004).
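Test compounds were applied to cells in 96-well plates for 48 hours at 5 doses. GI50 marks 50% less growth.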 Calls of active or inactive are those of the source. Cut-off read from the data, not from the text of the source: active = GI50 up to about 1.1 µM and inactive = higher.

Key:
Assay in all cases: NCI tumour cell line growth inhibition, 48 h
[1] = system: HCT-116
[2] = system: SNB-19
[3] = system: SNB-75
[4] = system: PC-3
[5] = system: OVCAR-5
[6] = system: SK-MEL-5
[7] = system: KM12
[8] = system: T47D
[9] = system: OVCAR-3
[10] = system: MOLT-4
[11] = system: NCI-H460
[12] = system: OVCAR-8
[13] = system: UACC-62
[14] = system: NCI/ADR-RES
[15] = system: CCRF-CEM
[16] = system: K562
[17] = system: HOP-92
[18] = system: MDA-N
[19] = system: U-251
[20] = system: HCC 2998
[21] = system: HL-60
[22] = system: SN12C
[23] = system: NCI-H226
[24] = system: RPMI-8226
[25] = system: UO-31
[26] = system: SK-MEL-28
[27] = system: 786-0
[28] = system: CAKI-1
[29] = system: RXF 393
[30] = system: EKVX
[31] = system: OVCAR-4
[32] = system: LOX IMVI
[33] = system: MCF7
[34] = system: HOP-62
[35] = system: SR
[36] = system: UACC-257
[37] = system: SF-268
[38] = system: MDA-MB-231
[39] = system: MDA-MB-435
[40] = system: HCT-15
[41] = system: ACHN
[42] = system: DU-145
[43] = system: COLO 205
[44] = system: SF-295
[45] = system: M14
[46] = system: SK-MEL-2
[47] = system: SK-OV-3
[48] = system: NCI-H23
[49] = system: A549
[50] = system: Hs-578T
[51] = system: SW-620

`CN1C(=O)C(CCO)(C(C)(C)C)c2ccccc21` (stereo unspecified) was tested, and the GI50 [1] was > 100 µM (inactive), the GI50 [2] was > 100 µM (inactive) and the GI50 [3] was 68.1 µM (inactive). For the same compound, the GI50 [4] was > 100 µM (inactive), the GI50 [5] was > 100 µM (inactive) and the GI50 [6] was > 100 µM (inactive). For the same compound, the GI50 [7] was > 100 µM (inactive), the GI50 [8] was > 100 µM (inactive) and the GI50 [9] was > 100 µM (inactive). For the same compound, the GI50 [10] was > 100 µM (inactive), the GI50 [11] was > 100 µM (inactive) and the GI50 [12] was > 100 µM (inactive). For the same compound, the GI50 [13] was > 100 µM (inactive), the GI50 [14] was > 100 µM (inactive) and the GI50 [15] was > 100 µM (inactive). For the same compound, the GI50 [16] was > 100 µM (inactive), the GI50 [17] was > 100 µM (inactive) and the GI50 [18] was > 100 µM (inactive). The GI50 [19] was > 100 µM (inactive), the GI50 [20] was > 100 µM (inactive) and the GI50 [21] was > 100 µM (inactive). For the same compound, the GI50 [22] was > 100 µM (inactive), the GI50 [23] was 97.9 µM (inactive) and the GI50 [24] was > 100 µM (inactive). For the same compound, the GI50 [25] was > 100 µM (inactive), the GI50 [26] was > 100 µM (inactive) and the GI50 [27] was > 100 µM (inactive). The GI50 [28] was > 100 µM (inactive), the GI50 [29] was > 100 µM (inactive) and the GI50 [30] was > 100 µM (inactive). For the same compound, the GI50 [31] was > 100 µM (inactive), the GI50 [32] was > 100 µM (inactive) and the GI50 [33] was > 100 µM (inactive). The GI50 [34] was > 100 µM (inactive), the GI50 [35] was > 100 µM (inactive) and the GI50 [36] was > 100 µM (inactive). The GI50 [37] was > 100 µM (inactive), the GI50 [38] was > 100 µM (inactive) and the GI50 [39] was > 100 µM (inactive). The GI50 [40] was > 100 µM, the GI50 [41] was > 100 µM (inactive) and the GI50 [42] was > 100 µM (inactive). For the same compound, the GI50 [43] was > 100 µM (inactive), the GI50 [44] was > 100 µM (inactive) and the GI50 [45] was > 100 µM (inactive). The GI50 [46] was > 100 µM (inactive), the GI50 [47] was > 100 µM (inactive) and the GI50 [48] was > 100 µM (inactive). For the same compound, the GI50 [49] was > 100 µM (inactive), the GI50 [50] was > 100 µM (inactive) and the GI50 [51] was > 100 µM (inactive).
